Data on 24 compounds can be found in US11524966B1 (Valo Early Discovery, Inc., priority 2017, dated 2022).

This experiment concerns the target T1, USP25 (USP25-His6, Boston Biochem E-546) (Homo sapiens, UniProt Q9UHP3).
T1 construct: His6; purchased Boston Biochem E-546
T1 sequence (Q9UHP3 1-1055): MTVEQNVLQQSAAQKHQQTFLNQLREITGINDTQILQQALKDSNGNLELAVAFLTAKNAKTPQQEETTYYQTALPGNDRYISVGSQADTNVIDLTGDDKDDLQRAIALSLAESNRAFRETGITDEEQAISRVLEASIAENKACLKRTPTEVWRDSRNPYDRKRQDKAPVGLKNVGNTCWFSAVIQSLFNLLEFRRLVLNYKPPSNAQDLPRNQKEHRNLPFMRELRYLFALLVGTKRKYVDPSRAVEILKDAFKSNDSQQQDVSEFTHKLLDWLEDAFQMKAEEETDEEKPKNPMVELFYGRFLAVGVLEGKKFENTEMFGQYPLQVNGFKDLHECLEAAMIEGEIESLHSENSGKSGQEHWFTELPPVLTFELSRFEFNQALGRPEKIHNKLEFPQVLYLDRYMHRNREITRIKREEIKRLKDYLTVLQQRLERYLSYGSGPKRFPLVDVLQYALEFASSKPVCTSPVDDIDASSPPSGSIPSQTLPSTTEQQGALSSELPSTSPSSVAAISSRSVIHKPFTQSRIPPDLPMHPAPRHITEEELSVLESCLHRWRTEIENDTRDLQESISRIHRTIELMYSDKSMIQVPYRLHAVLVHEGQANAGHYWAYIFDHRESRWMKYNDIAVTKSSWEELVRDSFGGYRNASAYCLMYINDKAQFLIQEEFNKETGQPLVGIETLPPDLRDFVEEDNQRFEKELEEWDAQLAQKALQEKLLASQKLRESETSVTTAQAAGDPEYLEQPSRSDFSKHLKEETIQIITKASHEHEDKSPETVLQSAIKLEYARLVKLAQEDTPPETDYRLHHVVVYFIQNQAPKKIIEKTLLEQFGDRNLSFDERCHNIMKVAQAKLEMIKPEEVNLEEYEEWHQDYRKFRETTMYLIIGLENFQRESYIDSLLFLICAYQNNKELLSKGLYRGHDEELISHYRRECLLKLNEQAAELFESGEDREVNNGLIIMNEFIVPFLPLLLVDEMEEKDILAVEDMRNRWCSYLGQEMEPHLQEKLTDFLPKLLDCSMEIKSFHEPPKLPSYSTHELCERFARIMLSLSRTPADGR
The experiment can be described thus: Ubiquitin-Rhodamine 110 Assay for USP25 Activity, Example A-2. The class given is biochemical. To be noted: Ubiquitin-Rhodamine 110 assay, Example A-2; read-out: USP25 A-2 IC50 range. In outline: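 Fluorescence (ex 485, em 535 nm) of cleaved ubiquitin-rhodamine 110 (25 nM, below Km) gave IC50 via 4-parameter logistic fit. Reaction: 45 min, room temperature, citric acid stop, after 30 min compound preincubation with 75 pM USP25-His6 in 20 mM Tris pH 8.0, 3 mM BME, 0.03% BGG, 0.01% Triton X-100; top dose 25 μM.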

For `Cc1ccc2c(N)c(C(=O)N[C@H]3COc4cc(N5C[C@@H](N)[C@@H](F)C5)ccc4C3)sc2n1` (single isomer, unassigned) [Example 3-5], the IC50 fell in the range of 200 to 2000 nM.
Turning to `Cc1ccc2c(N)c(C(=O)N[C@H]3COc4cc(N5C[C@@H](F)[C@@H](N)C5)ccc4C3)sc2n1` (single isomer, unassigned) [Example 3-6], the IC50 fell in the range of 200 to 2000 nM.
`COC[C@@H]1CN(c2nc3c(cc2F)C[C@H](NC(=O)c2sc4nc(C)ccc4c2N)CC3)C[C@@H]1N` (single isomer, unassigned) [Example 302]: the IC50 lay in the range of 200 to 2000 nM.
`COC[C@H]1CN(c2nc3c(cc2F)C[C@H](NC(=O)c2sc4nc(C)ccc4c2N)CC3)C[C@H]1N` (single isomer, unassigned) [Example 303]: the IC50 was over 2000 nM.
Turning to `CO[C@H]1CCN(c2ccc3c(n2)CC[C@H](NC(=O)c2sc4nc(C)ccc4c2N)C3)C[C@@H]1N` (single isomer, unassigned) [Example 315], the half-inhibitory concentration (IC50) lay in the range of 200 to 2000 nM.
Turning to `CO[C@@H]1CCN(c2ccc3c(n2)CC[C@H](NC(=O)c2sc4nc(C)ccc4c2N)C3)C[C@H]1N` (single isomer, unassigned) [Example 316], the IC50 is over 2000 nM.
Turning to `CCOC1CN(c2ccc3c(c2)OC[C@H](NC(=O)c2sc4nc(C)cc(C)c4c2N)C3)C[C@@H]1N` (stereo in doubt) [Example 323, 3-amino-N-[(3R)-7-[(3S,4R)-3-amino-4-ethoxypyrrolidin-1-yl]-3,4-dihydro-2H-1-benzopyran-3-yl]-4,6-dimethylthieno[2,3-b]pyridine-2-carboxamide], the 50% inhibitory concentration (IC50) was 50 to 200 nM.
Turning to `COC[C@@]1(C)CN(c2ccc3c(n2)CC[C@H](NC(=O)c2sc4nc(C)ccc4c2N)C3)CC1N` (stereo in doubt) [Example 343, 3-amino-N-[(6S)-2-[(3S,4S)-4-amino-3-(methoxymethyl)-3-methylpyrrolidin-1-yl]-5,6,7,8-tetrahydroquinolin-6-yl]-6-methylthieno[2,3-b]pyridine-2-carboxamide], the IC50 lay within 200 to 2000 nM.
Then `COC[C@H]1C[C@H](N)CN1c1ccc2c(c1)OC[C@H](NC(=O)c1sc3nc(C)ccc3c1N)C2` [Example 261, 3-amino-N-[(3R)-7-[(2R,4S)-4-amino-2-(methoxymethyl)pyrrolidin-1-yl]-3,4-dihydro-2H-1-benzopyran-3-yl]-6-methylthieno[2,3-b]pyridine-2-carboxamide], with 50 to 200 nM; and `COC[C@H]1C[C@@H](N)CN1c1ccc2c(c1)OC[C@H](NC(=O)c1sc3nc(C)ccc3c1N)C2` [Example 262, 3-amino-N-[(3R)-7-[(2R,4R)-4-amino-2-(methoxymethyl)pyrrolidin-1-yl]-3,4-dihydro-2H-1-benzopyran-3-yl]-6-methylthieno[2,3-b]pyridine-2-carboxamide], with 200 to 2000 nM.
Then `COC[C@@H]1C[C@H](N)CN1c1ccc2c(c1)OC[C@H](NC(=O)c1sc3nc(C)ccc3c1N)C2` [Example 263, 3-amino-N-[(3R)-7-[(2S,4S)-4-amino-2-(methoxymethyl)pyrrolidin-1-yl]-3,4-dihydro-2H-1-benzopyran-3-yl]-6-methylthieno[2,3-b]pyridine-2-carboxamide], with 50 to 200 nM; and `N#Cc1c(N2CC3CCC(C2)N3)cc2c(c1F)C[C@@H](NC(=O)c1cnc3c(c1)[C@@H]1C[C@@H]1CN3)CO2` [Example 264, (6aS,7aR)-N-[(3R)-6-cyano-7-{3,8-diazabicyclo[3.2.1]octan-3-yl}-5-fluoro-3,4-dihydro-2H-1-benzopyran-3-yl]-5H,6H,6aH,7H,7aH-cyclopropa[c]1,8-naphthyridine-2-carboxamide], with 1 to 50 nM; and `N#Cc1c(N2CC3CCC(C2)N3)cc2c(c1F)C[C@@H](NC(=O)c1cnc3c(c1)[C@H]1C[C@H]1CN3)CO2` [Example 265, (6aR,7aS)-N-[(3R)-6-cyano-7-{3,8-diazabicyclo[3.2.1]octan-3-yl}-5-fluoro-3,4-dihydro-2H-1-benzopyran-3-yl]-5H,6H,6aH,7H,7aH-cyclopropa[c]1,8-naphthyridine-2-carboxamide], with 200 to 2000 nM.
In the case of `CO[C@H]1CN(c2ccc3c(n2)CC[C@H](NC(=O)c2sc4nc(C)cnc4c2N)C3)C[C@@H]1NC(C)=O` [Example 266, 7-amino-N-[(6S)-2-[(3S,4S)-3-acetamido-4-methoxypyrrolidin-1-yl]-5,6,7,8-tetrahydroquinolin-6-yl]-3-methylthieno[2,3-b]pyrazine-6-carboxamide], the IC50 is over 2000 nM.
On to `CCO[C@@H]1CN(c2ccc3c(c2)CC[C@H](NC(=O)c2sc4nc(C)ccc4c2N)C3)C[C@@H]1N` [Example 267, 3-amino-N-[(2S)-6-[(3S,4R)-3-amino-4-ethoxypyrrolidin-1-yl]-1,2,3,4-tetrahydronaphthalen-2-yl]-6-methylthieno[2,3-b]pyridine-2-carboxamide], for which the IC50 lay within 200 to 2000 nM.
Then `CCO[C@H]1CN(c2ccc3c(c2)CC[C@H](NC(=O)c2sc4nc(C)ccc4c2N)C3)C[C@H]1N` [Example 268, 3-amino-N-[(2S)-6-[(3R,4S)-3-amino-4-ethoxypyrrolidin-1-yl]-1,2,3,4-tetrahydronaphthalen-2-yl]-6-methylthieno[2,3-b]pyridine-2-carboxamide], with over 2000 nM.
On to `CO[C@@H]1CN(c2ccc3c(n2)CC[C@H](NC(=O)c2sc4nc(C)ccc4c2N)C3)C[C@@H]1N` [Example 269, 3-amino-N-[(6S)-2-[(3S,4R)-3-amino-4-methoxypyrrolidin-1-yl]-5,6,7,8-tetrahydroquinolin-6-yl]-6-methylthieno[2,3-b]pyridine-2-carboxamide], for which the IC50 was over 2000 nM.
On to `CO[C@H]1CN(c2ccc3c(n2)CC[C@H](NC(=O)c2sc4nc(C)ccc4c2N)C3)C[C@H]1N` [Example 270, 3-amino-N-[(6S)-2-[(3R,4S)-3-amino-4-methoxypyrrolidin-1-yl]-5,6,7,8-tetrahydroquinolin-6-yl]-6-methylthieno[2,3-b]pyridine-2-carboxamide], for which the half-inhibitory concentration (IC50) is over 2000 nM.
Take `COC[C@@H]1CN(c2ccc3c(c2)OC[C@H](NC(=O)c2sc4nc(C)cc(C)c4c2N)C3)C[C@@H]1N` [Example 275, 3-amino-N-[(3R)-7-[(3R,4R)-3-amino-4-(methoxymethyl)pyrrolidin-1-yl]-3,4-dihydro-2H-1-benzopyran-3-yl]-4,6-dimethylthieno[2,3-b]pyridine-2-carboxamide]: the IC50 lay in the range of 200 to 2000 nM.
For `COC[C@H]1CN(c2ccc3c(c2)OC[C@H](NC(=O)c2sc4nc(C)cc(C)c4c2N)C3)C[C@H]1N` [Example 276, 3-amino-N-[(3R)-7-[(3S,4S)-3-amino-4-(methoxymethyl)pyrrolidin-1-yl]-3,4-dihydro-2H-1-benzopyran-3-yl]-4,6-dimethylthieno[2,3-b]pyridine-2-carboxamide], the IC50 fell in the range of 50 to 200 nM.
As to `COC[C@@H]1CN(c2cc(F)c3c(c2F)OC[C@H](NC(=O)c2sc4nc(C)cc(C)c4c2N)C3)C[C@@H]1N` [Example 277, 3-amino-N-[(3R)-7-[(3R,4R)-3-amino-4-(methoxymethyl)pyrrolidin-1-yl]-5,8-difluoro-3,4-dihydro-2H-1-benzopyran-3-yl]-4,6-dimethylthieno[2,3-b]pyridine-2-carboxamide], the IC50 fell in the range of 200 to 2000 nM.
Then `COC[C@H]1CN(c2cc(F)c3c(c2F)OC[C@H](NC(=O)c2sc4nc(C)cc(C)c4c2N)C3)C[C@H]1N` [Example 278, 3-amino-N-[(3R)-7-[(3S,4S)-3-amino-4-(methoxymethyl)pyrrolidin-1-yl]-5,8-difluoro-3,4-dihydro-2H-1-benzopyran-3-yl]-4,6-dimethylthieno[2,3-b]pyridine-2-carboxamide], with 50 to 200 nM; and `CO[C@@]1(C)CN(c2ccc3c(n2)CC[C@H](NC(=O)c2sc4nc(C)cnc4c2N)C3)C[C@@H]1N` [Example 279, 7-amino-N-[(6S)-2-[(3S,4S)-4-amino-3-methoxy-3-methylpyrrolidin-1-yl]-5,6,7,8-tetrahydroquinolin-6-yl]-3-methylthieno[2,3-b]pyrazine-6-carboxamide], with over 2000 nM; and `CO[C@]1(C)CN(c2ccc3c(n2)CC[C@H](NC(=O)c2sc4nc(C)cnc4c2N)C3)C[C@H]1N` [Example 280, 7-amino-N-[(6S)-2-[(3R,4R)-4-amino-3-methoxy-3-methylpyrrolidin-1-yl]-5,6,7,8-tetrahydroquinolin-6-yl]-3-methylthieno[2,3-b]pyrazine-6-carboxamide], with over 2000 nM.
